Laboratory results as given in patent US20240189375A1, “COMPOSITION COMPRISING A […] AN EXTRACT THEREOF FOR USE IN THE TREATMENT OF A VIRAL DISEASE” (priority 2021, published 2024).

Biological target: T1, rACE2 (Homo sapiens, UniProt Q9BYF1)
T1 construct: purchased R&D systems, Zug
Assay: ACE2 enzymatic activity assay with fluorogenic substrate
Type: biochemical
Details: range of 0.045 nM to 11100 nM; positive control; read-out: half maximal inhibitory concentration (IC50) of ACE2 catalytic activity
Procedure: The ACE2 enzymatic activity assay was designed to measure the exopeptidase activity of ACE2 and to screen for inhibition. Activity was measured using a commercially available synthetic fluorogenic substrate for ACE2 and rACE2 (R&D systems, Zug). rACE2 was used to generate a standard curve using the assay buffer, 75 mM TRIS, 1M NaCl, ph7.5. Natural extract screening was performed using 100 ng/ml rACE2 and 15 μM ACE2 fluorogenic substrate plus the Chlorella extracts in various concentrations. Subsequently the mixture was incubated for 1 h at 37° C. and measured using Flexstation 3 (Molecular Devices, San Jose, CA, USA) at excitation 320 nm and emission 405 nm.

T1 sequence (Q9BYF1 18-805): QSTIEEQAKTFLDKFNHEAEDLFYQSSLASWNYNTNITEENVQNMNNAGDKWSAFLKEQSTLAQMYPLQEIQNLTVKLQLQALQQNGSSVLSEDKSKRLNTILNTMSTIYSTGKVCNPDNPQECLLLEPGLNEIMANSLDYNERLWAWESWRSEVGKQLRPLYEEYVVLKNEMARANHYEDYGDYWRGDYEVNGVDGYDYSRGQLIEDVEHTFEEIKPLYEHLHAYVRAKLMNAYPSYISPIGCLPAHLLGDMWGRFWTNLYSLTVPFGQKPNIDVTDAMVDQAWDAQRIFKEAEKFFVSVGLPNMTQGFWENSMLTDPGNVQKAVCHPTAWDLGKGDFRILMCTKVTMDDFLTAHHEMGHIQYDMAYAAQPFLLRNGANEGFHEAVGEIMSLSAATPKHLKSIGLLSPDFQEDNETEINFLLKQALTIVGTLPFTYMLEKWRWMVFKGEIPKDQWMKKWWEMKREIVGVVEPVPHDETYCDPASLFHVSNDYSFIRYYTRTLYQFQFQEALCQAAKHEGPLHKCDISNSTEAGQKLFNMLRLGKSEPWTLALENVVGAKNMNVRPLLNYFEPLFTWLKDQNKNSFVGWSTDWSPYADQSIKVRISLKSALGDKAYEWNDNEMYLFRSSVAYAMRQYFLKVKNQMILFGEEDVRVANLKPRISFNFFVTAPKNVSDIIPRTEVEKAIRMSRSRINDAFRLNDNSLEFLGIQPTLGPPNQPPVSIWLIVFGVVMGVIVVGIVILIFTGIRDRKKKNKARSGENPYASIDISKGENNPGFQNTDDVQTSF

## CC(C)C[C@H](N[C@@H](Cc1cncn1Cc1cc(Cl)cc(Cl)c1)C(=O)O)C(=O)O [MLN-4760]
  IC50: 0.19 nM
